Like-named read-outs stand apart in the source and are kept apart here.
Tests used:
[1] = tested on: human HSP90; conditions: cited from earlier work
[2] = tested on: TCL1-SCID transplant; conditions: 10 mg/kg for 16 days; cited from earlier work
[3] = tested on: tumor growth; conditions: 25 mg/kg three times a week; cited from earlier work
[4] = tested on: TMK-1 xenografts; conditions: 5 mg/kg or 25 mg/kg thrice per week; cited from earlier work
[5] = relative to 17-AAG; cited from earlier work
[6] = cited from earlier work
[7] = tested on: HSP90; conditions: cited from earlier work
[8] = tested on: MC38 cells; experiment: Flow cytometry of MHC Class I H2-Kb surface expression on MC38 cells; type: cell-based, mouse
Procedure: (§1) For analysis of MHC Class I surface expression, cells were seeded into 12 well plates (125,000/well). 24-hours later, cells were treated with the indicated concentrations of HSP90i (NVP-HSP990) or DMSO vehicle. 72-hours after treatment, cells were dissociated with Accumax (Innovative Cell Technologies) and each treatment condition was distributed into 2 wells of a 96 well plate. […] After incubation with antibody, cells were washed 1× in ice cold PBS+10% FBS prior to analysis on a MACSQuant VYB flow cytometer. Cytometric data were plotted and analyzed with FloJo.
as §1, with “LSR-2” for “MACSQuant VYB”

[9] = cited from earlier work; remark: listed apart in the source
[10] = tested on: HSP90; conditions: cited from earlier work; remark: listed apart in the source
[11] = target: HSP90; conditions: cited from earlier work; remark: listed apart in the source
[12] = tested on: A375 and A2780 xenografts; conditions: 60 mg/kg i.v.; cited from earlier work
[13] = 10 mg/kg i.v., test animals; cited from earlier work
[14] = tested on: refractory neuroendocrine tumors (NET)s; conditions: 42-100 mg/m2 every other day; cited from earlier work
[15] = mono-therapy, cited from earlier work
[16] = target: HSP90; conditions: binding to HSP90, same site; cited from earlier work
[17] = tested on: A375 cells; conditions: cited from earlier work
[18] = tested on: M229R and 1205LuR xenografts; conditions: cited from earlier work
[19] = tested on: MC38 cells; experiment: Immunoblot analysis of MC38 cells; type: cell-based, mouse; conditions: Hsp90i 60 nM or IFN-γ 10 ng/mL
Procedure: Protein extraction was performed by washing cells 2× with PBS. A volume of lysis buffer (50 mM Tris pH 7.5, 150 mM NaCl, 1 mM EDTA, 1% Triton-X100, 0.1% SDS, 1× Halt Protease/Phosphatase inhibitor) equal to 1/10 the culture media volume was added directly to the culture dish and incubated for 2-3 min on ice. Lysates were then thoroughly scraped and pipetted into 1.5 mL tubes and incubated for an additional 30 min on ice. Lysates were then cleared by centrifugation at 14,000×g for 15 min and quantified using BCA Assay. Lysates were separated by SDS-PAGE and transferred to 0.2 μm nitrocellulose membranes prior to washing with PBST, blocking with 5% milk in PBST, and incubation with primary antibody overnight at 4° C. All primary antibodies were diluted 1:1000 in 2.5% milk in PBST. Membranes were then washed 4×5 min with PBST and incubated with HRP conjugated secondary antibody at a 1:10,000 dilution in 2.5% milk in PBST, and washed again 4×5 min with PBST. Detection of secondary antibody was performed with SuperSignal West Pico or Femto ECL reagents (Pierce) and digitally imaged on a ChemiDoc (BioRad).
Immunoblotting was performed as described in Example 4. Briefly, protein extraction was performed by washing cells with PBS and then isolating whole cell lysates in lysis buffer (50 mM Tris pH 7.5, 150 mM NaCl, 1 mM EDTA, 1% Triton-X100, 0.1% SDS, 1× Halt Protease/Phosphatase inhibitor) Lysates were then cleared by centrifugation and quantified using BCA Assay. Lysates were separated by SDS-PAGE and transferred to 0.2 μm nitrocellulose membranes prior to washing with PBST, blocking with 5% milk in PBST, and incubation with primary antibody overnight at 4° C. All primary antibodies were diluted 1:1000 in 2.5% milk in PBST. Membranes were then washed and incubated with HRP conjugated secondary antibody. Detection of secondary antibody was performed with SuperSignal West Pico or Femto ECL reagents (Pierce) and digitally imaged on a ChemiDoc (BioRad).

Molecule: CO[C@H]1/C=C\C=C(/C)C(=O)NC2=CC(=O)C(NCCN(C)C)=C(C[C@@H](C)C[C@H](OC)[C@H](O)[C@@H](C)/C=C(\C)[C@@H]1OC(N)=O)C2=O.Cl [17-DMAG, 17-dimethylaminoethylamino-17-demethoxy-geldanamycin]
- IC50 ([1]; cell-free assay): 62 nM
- potency against human HSP90 as compared with 17-AAG [1]: ~2 times
- survival [2]: prolongs the survival
- white blood cell count [2]: significantly decreases the white blood cell count
- tumor growth in mice [3]: significantly suppresses tumor growth
- tumor growth of TMK-1 xenografts [4]: significantly reduces tumor growth
- plasma half-life, oral bioavailability, metabolism [5]: longer plasma half-life, greater oral bioavailability, and less extensive metabolism

Molecule: CCNC(=O)c1noc(-c2cc(C(C)C)c(O)cc2O)c1-c1ccc(CN2CCOCC2)cc1 [AUY922]
- maximum tolerated dose ([6]; once weekly intravenous infusion): 70 mg/m^2

Molecule: CC(C)NCCCn1c(Sc2cc3c(cc2I)OCO3)nc2c(N)ncnc21 [PU-H71]
- MTD ([6]; intravenous (iv) infusion): 350-400 mg/m2

Molecule: COc1ccc(C[C@H](NC(=O)[C@H](C)NC(=O)CN2CCOCC2)C(=O)N[C@@H](Cc2ccccc2)C(=O)C2(C)CO2)cc1 (stereo in doubt) [ONX-0914]
- effect on HSP90i-caused increase in MHC Class I surface expression ([8]; ONX-0914 500 nM with low level HSP90i): abrogated the increase in MHC Class I surface expression

Molecule: C=CCNC1=C2C[C@@H](C)C[C@H](OC)[C@H](O)[C@@H](C)/C=C(\C)[C@H](OC(N)=O)[C@@H](OC)/C=C\C=C(/C)C(=O)NC(=CC1=O)C2=O [17-AAG, 17-Allylamino-17-demethoxy-geldanamycin]
- maximum tolerated dose (MTD) ([6]; IV over 60 minutes on days 1, 4, 8 and 11 of each 21 day cycle): 150 mg/m^2
- water solubility (in words) [9]: not water-soluble

Molecule: COc1c(C)cnc(Cn2cnc3c(Cl)nc(N)nc32)c1C [BIIB021]
- MTD ([6]; twice-weekly oral dosing schedule): 800 mg

Molecule: CN1CCC(NC(=O)c2cc(-c3c(O)cc(O)cc3Oc3ccc([N+](=O)[O-])cc3)on2)CC1 [NMS-E973]
- antitumor efficacy [12]: high antitumor efficacy
- blood-brain barrier penetration [13]: ability to cross the blood-brain barrier
- pharmacokinetic profile [13]: favorable pharmacokinetic profile

Molecule: C=CCNc1c(O)cc2c(O)c1C[C@@H](C)C[C@H](OC)[C@H](O)[C@@H](C)/C=C(\C)[C@@H](OC(N)=O)[C@H](OC)/C=C\C=C(/C)C(=O)N2.Cl [IPI-504]
- maximum tolerated dose (MTD) and recommended phase II dose (RP2D) ([6]; iv, in combination with docetaxel 75 mg/m^2 once every three weeks, phase Ib): 450 mg/m^2
- MTD from phase 1 trial ([6]; monotherapy, intravenous infusion over 30 minutes): 225 mg/m^2
- on-treatment deaths, considered drug-related ([6]; phase III trial, metastatic and/or unresectable GIST): four
- aqueous solubility [9]: > 200 mg/mL

Molecule: CC1(C)CC(=O)c2c(C(F)(F)F)nn(-c3ccc(C(N)=O)c(N[C@H]4CC[C@H](OC(=O)CN)CC4)c3)c2C1 [SNX-5422]
- MTD ([6]; oral, pancreatic NETs and nonfunctional gastrointestinal and pulmonary NETs): 75 mg/m^2
- patients achieving stable disease for >8 cycles [14]: 2 of 3

Molecule: CC(C)c1cc(C(=O)N2Cc3ccc(CN4CCN(C)CC4)cc3C2)c(O)cc1O [AT13387]
- tolerated dose ([15]; once weekly): ≤ 90 mg/kg
- tolerated dose ([15]; twice weekly): up to 70 mg/kg
- RP2D ([6]; six doses in a four-week schedule (day 1, 2, 8, 9, 15, 16)): 160 mg/m2
- R2PD ([6]; twice weekly for 3 weeks in a 4-week regimen, diarrhea, nausea, vomiting, fatigue, systemic infusion reactions): 260 mg/m2
- MTD ([6]; twice weekly for 3 weeks in a 4-week regimen, visual disturbances): 120 mg/m2
- Kd [16]: 0.7 nM
- IC50 [17]: 18 nM

Molecule: CC[C@@H](C)Nc1cc(C(=O)NC2CC3CCC(C2)N3c2ccc(C(=O)C3CC3)cn2)c(C)cc1C(N)=O (stereo partly drawn) [XL888]
- growth inhibition of established xenografts ([18]; 100 mg/kg, SCID mice): 50%
- increase in intratumoral HSP70 expression compared with controls ([18]; 15 days of treatment): 8.6 fold

Molecule: CC1(C)CC(=O)c2c(C(F)(F)F)nn(-c3ccc(C(N)=O)c(N[C@H]4CC[C@H](O)CC4)c3)c2C1 [SNX-2112]
- MHC-I surface expression on MC38 cells ([8]; 60 nM for each drug): induced MHC-I

B1: IFN-γ: cytokine, canonical stimulus of antigen presentation, comparator at 10 ng/mL (protein, UniProt P01580 23-155, looked up)
Interferon gamma: HGTVIESLESLNNYFNSSGIDVEEKSLFLDIWRNWQKDGDMKILQSQIISFYLRLFEVLKDNQAISNNISVIESHLITTFFSNSKAKKDAFMSIAKFEVNNPQVQRQAFNELIRVVHQLLPESSLRKRKRSRC
- expression of downstream markers of IFN-γ signaling (Stat1, Stat3, pStat3, PD-L1) [19]: induced expression of downstream markers of IFN-γ signaling
